Measured values from patent US8227499B2, “Substituted-aryl-(imidazole)-methyl)-phenyl compounds as subtype selective modulators of alpha 2B and/or alpha 2C adrenergic receptors” (Allergan, Inc., priority 2008, dated 2012).
Like-named read-outs stand apart in the source and are kept apart here.

Legend:
alpha 2B receptor = target: T1, alpha 2B receptor (Homo sapiens, UniProt P18089); assay: Receptor Selection and Amplification technology (RSAT) assay, alpha 2B; type: cell-based; conditions: for Alpha 2B intrinsic activity (relative efficacy): RSAT, number in parentheses, ratio of maximal effect to that of standard full agonist brimonidine (UK14304)
T1 construct: expressed in transfected cells; host or cells: NIH-3T3 cells
T1 sequence (P18089 1-450): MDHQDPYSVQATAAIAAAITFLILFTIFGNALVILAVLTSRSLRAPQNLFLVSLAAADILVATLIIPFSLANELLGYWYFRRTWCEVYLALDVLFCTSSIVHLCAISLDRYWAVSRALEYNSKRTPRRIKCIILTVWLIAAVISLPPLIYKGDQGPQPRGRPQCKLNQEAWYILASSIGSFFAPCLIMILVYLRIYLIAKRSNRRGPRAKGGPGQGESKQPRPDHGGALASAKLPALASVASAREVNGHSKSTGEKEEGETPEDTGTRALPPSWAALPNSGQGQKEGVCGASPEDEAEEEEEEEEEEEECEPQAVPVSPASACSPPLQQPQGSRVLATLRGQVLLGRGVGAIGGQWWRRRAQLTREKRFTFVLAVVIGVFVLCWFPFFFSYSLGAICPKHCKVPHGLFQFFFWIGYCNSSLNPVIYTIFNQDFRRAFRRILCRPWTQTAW
Protocol: (§1) The RSAT assay measures a receptor-mediated loss of contact inhibition that results in selective proliferation of receptor-containing cells in a mixed population of confluent cells. The increase in cell number is assessed with an appropriate transfected marker gene such as β-galactosidase, the activity of which can be easily measured in a 96-well format. Receptors that activate the G protein, Gq, elicit this response. Alpha 2 receptors, which normally couple to Gi, activate the RSAT response when coexpressed with a hybrid Gq protein that has a G; receptor recognition domain, called Gq/i5.
(§2) NIH-3T3 cells are plated at a density of 2×10^6 cells in 15 cm dishes and maintained in Dulbecco's modified Eagle's medium supplemented with 10% calf serum. One day later, cells are cotransfected by calcium phosphate precipitation with mammalian expression plasmids encoding p-SV-β-galactosidase (5-10 μg), receptor (1-2 μg) and G protein (1-2 μg). 40 μg salmon sperm DNA may also be included in the transfection mixture. Fresh media is added on the following day and 1-2 days later, cells are harvested and frozen in 50 assay aliquots. Cells are thawed and 100 μl added to 100 μl aliquots of various concentrations of drugs in triplicate in 96-well dishes. Incubations continue 72-96 hr at 37° C. After washing with phosphate-buffered saline, .E-backward.-galactosidase enzyme activity is determined by adding 200 μl of the chromogenic substrate (consisting of 3.5 mM o-nitrophenyl-beta-D-galactopyranoside and 0.5% nonidet P-40 in phosphate buffered saline), incubating overnight at 30° C. and measuring optical density at 420 nm. The absorbance is a measure of enzyme activity, which depends on cell number and reflects a receptor-mediated cell proliferation. The efficacy or intrinsic activity is calculated as a ratio of the maximal effect of the drug to the maximal effect of a standard full agonist for each receptor subtype. Brimonidine, also called UK14304, the chemical structure of which is shown below, is used as the standard agonist for the alpha 2A, alpha 2B and alpha 2C receptors.

alpha 2C receptor = target: T2, alpha 2C receptor (Homo sapiens, UniProt P18825); assay: Receptor Selection and Amplification technology (RSAT) assay, alpha 2C; type: cell-based; conditions: for Alpha 2C intrinsic activity (relative efficacy): RSAT, number in parentheses, ratio of maximal effect to that of standard full agonist brimonidine (UK14304)
T2 construct: expressed in transfected cells; host or cells: NIH-3T3 cells
T2 sequence (P18825 1-462): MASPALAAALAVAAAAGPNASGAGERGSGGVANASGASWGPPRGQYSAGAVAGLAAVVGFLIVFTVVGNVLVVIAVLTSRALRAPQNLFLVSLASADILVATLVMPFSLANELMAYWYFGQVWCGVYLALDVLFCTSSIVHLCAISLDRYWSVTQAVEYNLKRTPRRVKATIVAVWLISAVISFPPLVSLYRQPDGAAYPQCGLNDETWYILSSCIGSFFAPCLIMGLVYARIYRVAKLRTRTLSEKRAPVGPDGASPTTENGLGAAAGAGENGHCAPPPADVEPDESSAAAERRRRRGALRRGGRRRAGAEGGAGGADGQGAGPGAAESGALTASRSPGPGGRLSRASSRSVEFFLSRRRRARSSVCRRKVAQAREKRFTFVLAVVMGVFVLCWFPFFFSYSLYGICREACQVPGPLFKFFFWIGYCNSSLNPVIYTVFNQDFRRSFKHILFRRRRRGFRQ
Source text: The compounds disclosed herein are agonists of alpha 2B/2C adrenergic receptors. […] 76, pp. 308-311 (incorporated herein by reference) and is also described below. Another reference pertinent to this assay is Conklin et al. (1993) Nature 363: 274-6, also incorporated herein by reference.
as §1, §2

[1] = RSAT in transfected NIH-3T3 cells, number outside parentheses, read-out: Alpha 2B potency (EC50)
[2] = RSAT in transfected NIH-3T3 cells, number outside parentheses, read-out: Alpha 2C potency (EC50)

| Structure (SMILES) | EC50 (alpha 2B receptor; [1]) [nM] | Alpha 2B intrinsic activity (relative efficacy) (alpha 2B receptor) | EC50 (alpha 2C receptor; [2]) [nM] | Alpha 2C intrinsic activity (relative efficacy) (alpha 2C receptor) | EC50 (alpha 2B receptor) [nM] | EC50 (alpha 2C receptor) [nM] |
| --- | --- | --- | --- | --- | --- | --- |
| Cc1cccc(C(c2ccccc2)c2c[nH]cn2)c1C (stereo not shown) | 1.8 | 1.23 | 91 | 1.02 | – | – |
| Fc1cccc(C(c2ccccc2)c2c[nH]cn2)c1 (stereo not shown) | – | 1.00 | – | No Data (.15) | 332 | – |
| Cc1ccccc1C(c1ccccc1)c1c[nH]cn1 (stereo not shown) | – | .99 | – | .64 | 55 | 1900 |
| Fc1cccc(C(c2ccccc2)c2c[nH]cn2)c1F (stereo not shown) | 62 | 1.10 | – | No Data (.22) | – | – |
| Fc1c(C(c2ccccc2)c2c[nH]cn2)cccc1C(F)(F)F (stereo not shown) | 21 | .89 | – | No Data (.12) | – | – |
| Clc1cccc(C(c2ccccc2)c2c[nH]cn2)c1Cl (stereo not shown) | 6.9 | 1.19 | 332 | .40 | – | – |
| Fc1c(Cl)cccc1C(c1ccccc1)c1c[nH]cn1 (stereo not shown) | 44 | .91 | – | No Data (.21) | – | – |
| Cc1c(Cl)cccc1C(c1ccccc1)c1c[nH]cn1 (stereo not shown) | 18 | 1.35 | 411 | .35 | – | – |
